# Assay results taken from patent US20250387298A1, “FLEXIBLE MEDICAL CONTAINER” (B. Braun Melsungen AG, priority 2024, published 2025).
# Like-named read-outs stand apart in the source and are kept apart here. Marks after values point to notes of the source that are not given here.
# Experiment: Simulating experiments: Pip-Taz powder incubated with potential impurities in glass vials, turbidity after reconstitution
# Format: physicochemical
# Method: In order to mimic and evaluate the impact of Ti, Al, Sn, Ni, Mg, Cr, and Si containing impurities on the turbidity of piperacillin and tazobactam formation, the following simulating experiments were carried out (reference 6.7, Notebook BB5254/125, 134, 140-141, 145-146). Powders of piperacillin and tazobactam were mixed with different potential impurities in glass vials and incubated at 40° C. for 3 weeks. […] [table]
# [1] = 40° C. for 3 weeks in glass vial, 0.3 g Pip-Taz with 1-2 mg chemical, reconstituted in 12 mL 0.9% NaCl
# [2] = 40° C. for 3 weeks, chemical without drug, 0.9% NaCl
# [3] = Drug & Chemicals minus Chemical only, 40° C. for 3 weeks
# [4] = conclusion from Table 2, by metal/element of the impurity
impact on the turbidity of piperacillin and tazobactam [4],Compound,"Turbidity, Drug & Chemicals (Target Mole Ratio = 100:1, ~100 ppm for chemicals) [1]","Turbidity, Chemical only (~100 ppm) [2]",Turbidity Delta [3],"Turbidity, Drug & Chemicals",impact on the turbidity of piperacillin and tazobactam,Turbidity Delta,"Turbidity, Chemical only (~100 ppm)","Turbidity, Drug & Chemicals (Target Mole Ratio = 100:1, ~100 ppm for chemicals)"
,O.O.O.O.O.O.[Cl][Cr]([Cl])[Cl] [chromium (Ill) chloride hexahydrate],15.60,0.18,15.42,,,,,
,CC(=O)[O-].CC(=O)[O-].[Fe+2] [iron(ll) acetate],98.77,9.66,89.10,,,,,
,O=S(=O)([O-])[O-].[Mg+2] [magnesium sulfate],,,,1.53*,no impact,,,
,CC(=O)[O-].CC(=O)[O-].CC(=O)[O-].CC(=O)[O-].[Sn+4] [tin (IV) acetate],,,,,,1.04,0.08,1.13
substantial effect,CC(=O)/C=C(/C)[O-].CC(=O)/C=C(/C)[O-].[O]=[Ti+2] [titanium (IV) oxyacetylacetonate],179.33,5.44,173.89,,,,,
substantial effect,aluminum chloride hydrate,3.01,0.13,2.88,,,,,

Compound,impact on the turbidity of piperacillin and tazobactam [4],"Turbidity, Drug & Chemicals (Target Mole Ratio = 100:1, ~100 ppm for chemicals) [1]","Turbidity, Chemical only (~100 ppm) [2]",Turbidity Delta [3],"Turbidity, Drug & Chemicals",impact on the turbidity of piperacillin and tazobactam,Turbidity Delta,"Turbidity, Chemical only (~100 ppm)","Turbidity, Drug & Chemicals (Target Mole Ratio = 100:1, ~100 ppm for chemicals)"
O[Si](O)(O)C1CCCCC1 [Cyclohexyl-dihydroxyl-hydroxylsilane],substantial effect,18.20,0.54,17.66,,,,,
